Converted amounts (≈) assume the structure as drawn.
How the values were obtained:
E. coli K12 = test: Minimum inhibitory concentration (MIC), bioscreen spectrophotometer; assay type: cell-based; conditions: Escherichia coli, 24 h incubation at 37° C., bioscreen spectrophotometer at 600 nm
From the text: A range of different concentrations of antibiotic were used to establish the MIC employing a standardised method^17.

[1] = tested on: Psuedomonas aeruginosa (Gram-negative); test: Susceptibility/resistance of the selected strain (Table 10); assay type: cell-based, Pseudomonas aeruginosa; conditions: Experimental Work 4
S. aureus = test: UV-Vis spectroscopy with PC-DFA cluster plot, phenotypic shift after antibiotic exposure vs unexposed control; assay type: cell-based, Staphylococcus aureus
From the text: (§1) A first stage of data analysis involved the use of principal component analysis (PCA). […] Its aim is to simplify spectral data from a high number of variables into a smaller number of indices (each called a “principal component” or “PC”), simultaneously retaining the original data variance by identifying data patterns. This is achieved as each PC becomes a representation of a group of data with a linear relationship, at the same time being completely uncorrelated to the subsequent PC which corresponds to a different data dimension. PCs are arranged in a descending order in terms of the degree of original data variance they represent with the first PC representing the greatest amount of original data variance. Addition of all the PCs thus yields the entire original data variance, with the first 5 PCs nearly always corresponding to almost 95% of that variance^11,20-22.
In a second stage, discriminant function analysis (DFA), a supervised technique, was used. This chemometrics technique forms a model by taking into account the structure of data collected from the experiment, thus having a priori experimental knowledge. Using this knowledge it then discriminates data into groups (bacterial classes of treatment) based on the PCs obtained from the PCA in an attempt to reduce intra-group variance and widen inter-group variance^23.
For each strain, 3 mL of nutrient broth was inoculated with the overnight grown cells to a final OD600nm=0.1, followed by dispensing the samples as 200 μL aliquots in a sterile Corning 96 well plate (5 biological replicates per strain for each condition). All plates were sealed using sterile Breath-Easy sealing membranes to reduce sample evaporation. The plates were incubated at 37° C. with 200 rpm shaking for 150 min.
The plates were transferred to one of two BioTek Synergy HT microplate readers programmed for 30 min shaking with medium speed at 37° C. followed by a full scan (200-999 nm range) of all the samples with 2 nm resolution.
In general, unless otherwise stated, the material and methods for Experimental Work 4 were the same as for Experimental Work 3, except that a single Thermo Biomate 5 UV-Vis spectrometer across spectral range of 300-800 nm was used for data collection in Experimental Work 4.

S. epidermidis = test: as above; assay type: cell-based, Staphylococcus epidermidis; conditions: after both 10 minutes and 30 minutes
From the text: as §1
(§2) In a second stage, discriminant function analysis (DFA), a supervised technique, was used. This chemometrics technique forms a model by taking into account the structure of data collected from the experiment, thus having a priori experimental knowledge. […]
(§3) The plates were transferred to one of two BioTek Synergy HT microplate readers programmed for 30 min shaking with medium speed at 37° C. followed by a full scan (200-999 nm range) of all the samples with 2 nm resolution. […]

P. aeruginosa = test: as above; assay type: cell-based, Pseudomonas aeruginosa; conditions: after both 10 minutes and 30 minutes
From the text: as §1, §2, §3

[2] = tested on: Staphylococcus epidermidis (Gram-positive); test: Susceptibility/resistance of the selected strain (Table 10); assay type: cell-based; conditions: Experimental Work 4
[3] = tested on: Staphylococcus aureus (Gram-positive); test: as above; assay type: cell-based; conditions: Experimental Work 4

| Structure (SMILES) | MIC (E. coli K12) [µg/mL] | Sensitive / Resistant to antibiotic [1] | shift in the cluster plot (PC-DFA) (S. aureus; after 30 minutes exposure) [units] | shift in the cluster plot (PC-DFA) (S. aureus; at 10 minutes exposure) | shift in the cluster plot (PC-DFA) (S. epidermidis) | shift in the cluster plot (PC-DFA) (P. aeruginosa) | Sensitive / Resistant to antibiotic [2] | Sensitive / Resistant to antibiotic [3] |
| --- | --- | --- | --- | --- | --- | --- | --- | --- |
| NCC[C@H](O)C(=O)N[C@@H]1C[C@H](N)[C@@H](O[C@H]2O[C@H](CN)[C@@H](O)[C@H](O)[C@H]2O)[C@H](O)[C@H]1O[C@H]1O[C@H](CO)[C@@H](O)[C@H](N)[C@H]1O [Amikacin] | 10 (≈ 17.1 µM) | – | – | – | – | – | – | – |
| CC1(C)S[C@@H]2[C@H](NC(=O)[C@H](N)c3ccccc3)C(=O)N2[C@H]1C(=O)O [Ampicillin] | 10 (≈ 28.6 µM) | Resistant | ~1.5 | minimal | minimal | minimal | Resistant | Sensitive |
| O=C(O)c1cn(C2CC2)c2cc(N3CCNCC3)c(F)cc2c1=O [Ciprofloxacin] | – | Sensitive | – | – | – | – | Sensitive | Sensitive |
| COc1cc(Cc2cnc(N)nc2N)cc(OC)c1OC [Trimethoprim] | 300 (≈ 1030 µM) | Resistant | ~4 | minimal | ~3 units | ~3 units | Resistant | Resistant |

From patent US10570436B2, “Method of analysing a sample including a microorganism of interest” (Spectromics Limited, priority 2014, dated 2020)
